Numbered stars: 1 amine (or outer) side, 2 acyl side, 3 side chain; on linkers, the order of the positions; unused ones are H or OH. Bridge positions count the residues as written; N and C are the ends. Square brackets hold non-standard residues; d marks the D form. Side chains are listed from the residue outwards. Peptide text beside a SMILES is read from it. * marks the point of attachment. Nle(6-ylidene) = O=C([C@H](CCCC=[*:3])N[*:1])[*:2]; γGlu = O=C(O)[C@H](CCC(=O)[*:2])N[*:1]; Palmitoyl = CCCCCCCCCCCCCCCC(=O)*; S5 = C=CCCC[C@](C)(N)C(=O)O; Aib = CC(C)(N)C(=O)O
Legend:
human GCGR = biological target: T1, human GCGR (Homo sapiens, UniProt P47871); assay: cAMP activity assay, cells expressing human GCGR (HitHunter cAMP XS); format: cell-based; details: ratio of human GCGR EC50 to human GLP1R EC50
T1 construct: expressed in transfected cells; assay-ready frozen cells grown with Blasticidin and Hygromycin
Description: (§1) Activity of the peptides at the Glucagon receptor (GCGR) and GLP-1 receptor (GLP1R) was measured in a cAMP activity assay.
(§2) Peptides were dissolved in 100% DMSO and serially diluted to generate 10 point titrations. The peptide solutions were then transferred into 384-well assay plates (150 nL/well).
(§3) Assay ready frozen cells expressing human GLP1R or human GCGR were suspended in growth media consisting of DMEM medium (GIBCO), 10% FBS (GIBCO), 1x NEAA(GIBCO), 1x P/S (GIBCO), 10ug/ml Blasticidin (GIBCO) and 200 µg/mL Hygromycin (GIBCO). Cells were then diluted in assay buffer consisting of PBS (GIBCO), 7.5% BSA (Perkin Elmer), 100 µM RO 20-1724 (Sigma), with or without 20% human serum (MP Biomedical). The cell suspensions (15 µL) were then added to the assay plates containing the peptide solutions (30,000 cells/well for human GCGR; 10.000 cells/well for human GLP1R). The cells were incubated for 1 hour at room temperature in the dark. Production of cAMP was determined using HitHunter™ cAMPXS kits (DiscoverX) following manufacturer protocol. The plates were incubated for overnight at room temperature in the dark. Luminescence was measured using an EnVision Multilabel plate reader (Perkin Elmer). Native GLP-1 and Glucagon (Bachem) are used as control peptides. EC50 values were calculated using uses a 4 parameter logistic fit based on the Levenberg-Marquardt algorithm.

human GLP1R = biological target: T2, human GLP1R (Homo sapiens, UniProt P43220); assay: cAMP activity assay, cells expressing human GLP1R (HitHunter cAMP XS); format: cell-based; details: cAMP production, 1 hour at room temperature; assay buffer with or without 20% human serum (not stated which)
T2 construct: expressed in transfected cells; assay-ready frozen cells grown with Blasticidin and Hygromycin
Description: as §1, §2, §3

T2 sequence (P43220 24-463): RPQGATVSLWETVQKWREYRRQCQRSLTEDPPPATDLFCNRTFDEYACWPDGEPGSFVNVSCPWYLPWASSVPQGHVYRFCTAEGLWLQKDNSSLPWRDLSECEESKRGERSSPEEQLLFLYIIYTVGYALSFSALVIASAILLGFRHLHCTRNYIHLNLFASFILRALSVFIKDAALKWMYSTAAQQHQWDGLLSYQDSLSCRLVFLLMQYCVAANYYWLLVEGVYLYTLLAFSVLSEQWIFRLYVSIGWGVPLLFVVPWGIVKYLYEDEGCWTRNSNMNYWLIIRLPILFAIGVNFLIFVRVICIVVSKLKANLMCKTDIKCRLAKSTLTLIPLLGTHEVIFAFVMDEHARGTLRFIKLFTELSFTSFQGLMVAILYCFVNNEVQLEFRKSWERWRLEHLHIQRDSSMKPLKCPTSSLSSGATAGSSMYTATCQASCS
T1 sequence (P47871 26-477): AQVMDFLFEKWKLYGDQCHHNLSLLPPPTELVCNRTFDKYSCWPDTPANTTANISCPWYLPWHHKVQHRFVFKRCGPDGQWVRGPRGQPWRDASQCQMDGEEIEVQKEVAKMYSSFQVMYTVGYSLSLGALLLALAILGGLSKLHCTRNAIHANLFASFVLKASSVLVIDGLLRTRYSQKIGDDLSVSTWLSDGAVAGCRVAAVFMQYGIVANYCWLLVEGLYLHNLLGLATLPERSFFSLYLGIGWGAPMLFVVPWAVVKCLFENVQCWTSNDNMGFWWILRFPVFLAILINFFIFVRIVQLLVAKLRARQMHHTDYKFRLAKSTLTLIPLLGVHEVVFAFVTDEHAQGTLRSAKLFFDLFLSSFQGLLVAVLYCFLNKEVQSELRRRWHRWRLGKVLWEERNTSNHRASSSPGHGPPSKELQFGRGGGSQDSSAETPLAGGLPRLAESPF

SMILES | hGCGR/hGLP1R (hTone) (human GCGR) | EC50 (human GLP1R) [nM]
CC(C)C[C@@H]1NC(=O)[C@H](Cc2c[nH]c3ccccc23)NC(=O)[C@@H](NC(=O)[C@@H](NC(=O)[C@H](Cc2ccccc2)NC(=O)[C@H](CC(=O)O)NC(=O)[C@H](CCC(N)=O)NC(=O)[C@H](C)NC(=O)[C@H](C)NC(=O)[C@H](CCCNC(=N)N)NC(=O)C(C)(C)NC(=O)[C@H](CC(=O)O)NC(=O)[C@H](CC(C)C)NC(=O)[C@H](Cc2ccc(O)cc2)NC(=O)[C@H](CCCCN)NC(=O)[C@H](CO)NC(=O)[C@H](CCCCN)NC(=O)[C@H](CC(=O)O)NC(=O)[C@H](CO)NC(=O)[C@@H](NC(=O)[C@H](Cc2ccccc2)NC(=O)[C@@H](NC(=O)CNC(=O)[C@H](CCC(N)=O)NC(=O)C(C)(C)NC(=O)[C@@H](N)Cc2c[nH]cn2)[C@@H](C)O)[C@@H](C)O)C(C)C)CCCC=CCCC[C@@H](C(=O)N[C@H](C(=O)N[C@@H](CCCCN)C(=O)N[C@@H](CCC(N)=O)C(=O)O)[C@@H](C)O)NC(=O)[C@H](CC(C)C)NC1=O [compound 18] (H-H[Aib]QGTFTSDKSKYLD[Aib]RAAQDFV[Nle(6-ylidene)]WLL[Nle(6-ylidene)]TKQ-OH; staple 24-28) | 33.1 | 0.13
CCCCCCCCCCCCCCCC(=O)N[C@@H](CCC(=O)N[C@@H](CCC(=O)NCCCC[C@H](NC(=O)[C@H](CC(=O)O)NC(=O)[C@H](CO)NC(=O)[C@@H](NC(=O)[C@H](Cc1ccccc1)NC(=O)[C@@H](NC(=O)CNC(=O)[C@H](CCC(N)=O)NC(=O)C(C)(C)NC(=O)[C@@H](N)Cc1c[nH]cn1)[C@@H](C)O)[C@@H](C)O)C(=O)N[C@@H](CO)C(=O)N[C@@H](CCCCN)C(=O)N[C@@H](Cc1ccc(O)cc1)C(=O)N[C@@H](CC(C)C)C(=O)N[C@@H](CC(=O)O)C(=O)NC(C)(C)C(=O)N[C@@H](CCCNC(=N)N)C(=O)N[C@@H](C)C(=O)N[C@@H](C)C(=O)N[C@@H](CCC(N)=O)C(=O)N[C@@H](CC(=O)O)C(=O)N[C@@H](Cc1ccccc1)C(=O)N[C@H](C(=O)N[C@@]1(C)CCCC=CCCC[C@@](C)(C(=O)N[C@H](C(=O)N[C@@H](CCCCN)C(=O)N[C@@H](CCC(N)=O)C(=O)O)[C@@H](C)O)NC(=O)[C@H](CCSC)NC(=O)[C@H](CC(C)C)NC(=O)[C@H](Cc2c[nH]c3ccccc23)NC1=O)C(C)C)C(=O)O)C(=O)O [compound 14] (H-H[Aib]QGTFTSDK([γGlu-γGlu-Palmitoyl])SKYLD[Aib]RAAQDFV[S5]WLM[S5]TKQ-OH; staple 24-28) | 35.14 | 0.13
